Test results as given in patent US12054469B2, “Benzothiophene-based selective estrogen receptor downregulator compounds” (The Board of Trustees of the University of Illinois, priority 2015, dated 2024).

Experiments:
estrogen receptor = estrogen receptor (Homo sapiens (Human), UniProt P03372); assay: Western blot analysis of estrogen receptor downregulation; type: cell-based; conditions: 10 nM
Method: Whole-cell extracts of cultured cells were prepared in lysis buffer (200 mmol/L Tris, 1% Triton X-100, 5 mmol/L EDTA) with protease and phosphatase inhibitor cocktails (1:50, both from Sigma-Aldrich) after scraping from the culture plates. Protein concentration was measured using the Bradford method (Bio-Rad). Proteins were separated under denaturing conditions and blotted onto nitrocellulose membrane (Bio-Rad) using a wet transfer system (Bio-Rad). Images of blots were acquired on a Bio-Rad ChemiDoc System following incubation with SuperSignal West Dura luminol solution (Thermo Fisher Scientific).

MCF-7:WS8 cells = assay: Cell viability of MCF7:WS8, DNA content assay; type: cell-based, human
ERα = ERα (Homo sapiens (Human), UniProt P03372); assay: In-cell western (ICW) ER downregulation/degradation in MCF-7:WS8 cells; type: cell-based; conditions: Table 2; read-out: IC50 of ER downregulation from in-cell western blot experiments
MCF-7:TAM1 tumors = assay: MCF-7:TAM1 xenograft model of endocrine-resistant ER+ breast cancer; type: in vivo, mice; conditions: 100 mg/kg, oral gavage daily

Sequence of estrogen receptor (P03372 whole entry): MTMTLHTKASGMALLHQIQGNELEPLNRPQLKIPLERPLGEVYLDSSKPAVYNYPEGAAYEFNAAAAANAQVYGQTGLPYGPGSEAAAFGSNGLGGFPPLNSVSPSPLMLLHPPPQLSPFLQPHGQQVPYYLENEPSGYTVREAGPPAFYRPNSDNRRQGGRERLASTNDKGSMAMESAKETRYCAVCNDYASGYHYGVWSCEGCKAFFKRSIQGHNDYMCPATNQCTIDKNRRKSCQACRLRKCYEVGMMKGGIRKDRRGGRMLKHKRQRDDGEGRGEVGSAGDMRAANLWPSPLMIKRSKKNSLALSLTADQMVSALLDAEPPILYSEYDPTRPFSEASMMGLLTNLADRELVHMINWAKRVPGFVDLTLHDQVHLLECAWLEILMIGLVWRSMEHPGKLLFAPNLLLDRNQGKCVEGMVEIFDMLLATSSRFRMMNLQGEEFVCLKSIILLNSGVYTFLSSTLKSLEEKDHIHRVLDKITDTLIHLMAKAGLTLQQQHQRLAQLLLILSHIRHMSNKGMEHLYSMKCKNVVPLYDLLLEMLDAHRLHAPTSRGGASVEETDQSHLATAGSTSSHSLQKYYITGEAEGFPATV
Sequence of ERα (P03372 whole entry): as above

| Estrogen receptor downregulation (western blot) (estrogen receptor) | MCF-7WS8 IC50 (MCF-7:WS8 cells) | Structure (SMILES) | further results |
| --- | --- | --- | --- |
| downregulate the estrogen receptor | – | Cc1cc(F)ccc1C(=O)c1sc2cc(O)ccc2c1Oc1ccc(/C=C/C(=O)O)cc1 [Compound 1, (E)-3-(4-((2-(4-Fluoro-2-methylbenzoyl)-6-hydroxybenzo[b]thiophen-3-yl)oxy)phenyl)acrylic acid] | – |
| – | No Inhiibition | O=C(O)/C=C/c1ccc(Oc2c(C(=O)c3ccc(O)cc3)sc3cc(O)ccc23)cc1 [Compound 2, (E)-3-(4-((6-Hydroxy-2-(4-hydroxybenzoyl)benzo[b]thiophen-3-yl)oxy)phenyl) acrylic acid] | – |
| downregulate the estrogen receptor | – | CCc1ccccc1C(=O)c1sc2cc(O)ccc2c1Oc1ccc(/C=C/C(=O)O)cc1 [Compound 3, (E)-3-(4-((2-(2-Ethylbenzoyl)-6-hydroxybenzo[b]thiophen-3-yl)oxy)phenyl) acrylic acid] | – |
| downregulate the estrogen receptor | – | Cc1ccccc1C(=O)c1sc2cc(O)ccc2c1Oc1ccc(/C=C/C(=O)O)cc1 [Compound 5, (E)-3-(4-((6-Hydroxy-2-(2-methylbenzoyl)benzo[b]thiophen-3-yl)oxy)phenyl) acrylic acid] | – |
| downregulate the estrogen receptor | – | Cc1ccc(F)cc1C(=O)c1sc2cc(O)ccc2c1Oc1ccc(/C=C/C(=O)O)cc1 [Compound 6] | – |
| downregulate the estrogen receptor | – | Cc1ccsc1C(=O)c1sc2cc(O)ccc2c1Oc1ccc(/C=C/C(=O)O)cc1 [Compound 7, (E)-3-(4-((6-Hydroxy-2-(3-methylthiophene-2-carbonyl)benzo[b]thiophen-3-yl)oxy)phenyl) acrylic acid] | IC50 (ERα): 4.6 nM |
| – | No Inhibition | Cc1cc(F)ccc1C(=O)c1sc2cc(O)ccc2c1Oc1ccc(NC(=O)C(=O)O)cc1 [Compound 18, 2-((4-((2-(4-Fluoro-2-methylbenzoyl)-6-hydroxybenzo[b]thiophen-3-yl)oxy)phenyl)amino)-2-oxoacetic acid] | – |
| – | No inhibition | Cc1ccc(C(=O)c2sc3cc(O)ccc3c2Oc2ccc(NC(=O)C(=O)O)cc2)c(C)c1 [Compound 19, 2-((4-((2-(2,4-Dimethylbenzoyl)-6-hydroxybenzo[b]thiophen-3-yl)oxy)phenyl)amino)-2-oxoacetic acid] | – |
| – | – | CC/C(=C(\c1ccccc1)c1ccc(OCCN(C)C)cc1)c1ccccc1 [Tamoxifen, tamoxifen] | Effect on tumor (MCF-7:TAM1 tumors): entirely without effect |
